Reference: ChEMBL document CHEMBL3885881, “DrugMatrix”

Species on record: Rattus norvegicus
Test: DrugMatrix - Regimen: Daily Repeat
Type: toxicity, organism-based, Sprague-Dawley
Parameters: regimen Daily Repeat, gender Male, age 6-8 weeks
Settings: in vivo, po, route oral GAVAGE, vehicle .5 % CMC; for ABSOLUTE BASOPHIL / ABSOLUTE EOSINOPHIL / ABSOLUTE LYMPHOCYTE / ABSOLUTE MONOCYTE / ABSOLUTE SEGMENTED NEUTROPHIL / BASOPHIL / EOSINOPHIL / ERYTHROCYTE COUNT / HEMATOCRIT / HEMOGLOBIN / LEUKOCYTE COUNT / LYMPHOCYTE / MEAN CORPUSCULAR HEMOGLOBIN / MEAN CORPUSCULAR HEMOGLOBIN CONCENTRATION / MEAN CORPUSCULAR VOLUME / MONOCYTE / NEUTROPHIL / NUCLEATED RED BLOOD CELLS / PLATELET COUNT: tissue Blood; for ALANINE AMINOTRANSFERASE / ALBUMIN / ALKALINE PHOSPHATASE / ASPARTATE AMINOTRANSFERASE / BLOOD UREA NITROGEN / CARBON DIOXIDE / CHLORIDE / CHOLESTEROL / CREATINE PHOSPHOKINASE / CREATININE / GLUCOSE / LACTATE DEHYDROGENASE / LIPASE / PHOSPHORUS / POTASSIUM / SODIUM / TOTAL BILIRUBIN / TOTAL PROTEIN / URIC ACID: tissue Plasma
[1] = 29 mg/kg, 120 h, dose level Low, time 5 day
[2] = 400 mg/kg, 72 h, dose level High, time 3 day
[3] = 400 mg/kg, 120 h, dose level High, time 5 day

With `NC(=O)NC(=O)Cc1ccccc1` [PHENACEMIDE] the “ABSOLUTE BASOPHIL” value [1] was 0 CELLS/uL, the “ABSOLUTE EOSINOPHIL” value [1] was 29.33 CELLS/uL and the “ABSOLUTE LYMPHOCYTE” value [1] was 6627.33 CELLS/uL. For the same compound, the “ABSOLUTE MONOCYTE” value [1] was 106 CELLS/uL, the “ABSOLUTE SEGMENTED NEUTROPHIL” value [1] was 904 CELLS/uL and the BASOPHIL [1] was 0%. The EOSINOPHIL [1] was 0.33%, the “ERYTHROCYTE COUNT” value [1] was 5.3 x10E6/uL and the HEMATOCRIT [1] was 32%. For the same compound, the HEMOGLOBIN [1] was 12.6 G/DL, the “LEUKOCYTE COUNT” value [1] was 7.67 x10E3/uL and the LYMPHOCYTE [1] was 86%. For the same compound, the “MEAN CORPUSCULAR HEMOGLOBIN” value [1] was 23.8 pg, the “MEAN CORPUSCULAR HEMOGLOBIN CONCENTRATION” value [1] was 39.37 G/DL and the “MEAN CORPUSCULAR VOLUME” value [1] was 60.37 fL. For the same compound, the MONOCYTE [1] was 1.33%, the NEUTROPHIL [1] was 12.33% and the “NUCLEATED RED BLOOD CELLS” value [1] was 0 /100WBC. For the same compound, the “PLATELET COUNT” value [1] was 1108.33 x10E3/uL, the “ALANINE AMINOTRANSFERASE” value [1] was 42.67 u/L and the ALBUMIN [1] was 4.13 G/DL. The “ALKALINE PHOSPHATASE” value [1] was 433.33 u/L, the “ASPARTATE AMINOTRANSFERASE” value [1] was 75.33 u/L and the “BLOOD UREA NITROGEN” value [1] was 15.33 mg/dL. The “CARBON DIOXIDE” value [1] was 25.67 mmol/L, the CHLORIDE [1] was 102.33 MEQ/L and the CHOLESTEROL [1] was 82.67 mg/dL. For the same compound, the “CREATINE PHOSPHOKINASE” value [1] was 189.67 u/L, the CREATININE [1] was 0.28 mg/dL and the GLUCOSE [1] was 176.33 mg/dL. For the same compound, the “LACTATE DEHYDROGENASE” value [1] was 163.33 u/L, the LIPASE [1] was 10 u/L and the PHOSPHORUS [1] was 11.93 mg/dL. The POTASSIUM [1] was 5.88 MEQ/L, the SODIUM [1] was 145.3 MEQ/L and the “TOTAL BILIRUBIN” value [1] was 0.1 mg/dL. The “TOTAL PROTEIN” value [1] was 6.07 G/DL, the “URIC ACID” value [1] was 1.5 mg/dL and the “ABSOLUTE BASOPHIL” value [2] was 0 CELLS/uL. For the same compound, the “ABSOLUTE EOSINOPHIL” value [2] was 62.33 CELLS/uL, the “ABSOLUTE LYMPHOCYTE” value [2] was 7750.67 CELLS/uL and the “ABSOLUTE MONOCYTE” value [2] was 54.67 CELLS/uL. For the same compound, the “ABSOLUTE SEGMENTED NEUTROPHIL” value [2] was 1099 CELLS/uL, the BASOPHIL [2] was 0% and the EOSINOPHIL [2] was 0.67%. For the same compound, the “ERYTHROCYTE COUNT” value [2] was 5.14 x10E6/uL, the HEMATOCRIT [2] was 31.23% and the HEMOGLOBIN [2] was 11.97 G/DL. For the same compound, the “LEUKOCYTE COUNT” value [2] was 8.97 x10E3/uL, the LYMPHOCYTE [2] was 86.67% and the “MEAN CORPUSCULAR HEMOGLOBIN” value [2] was 23.33 pg. The “MEAN CORPUSCULAR HEMOGLOBIN CONCENTRATION” value [2] was 38.33 G/DL, the “MEAN CORPUSCULAR VOLUME” value [2] was 60.87 fL and the MONOCYTE [2] was 0.67%. The NEUTROPHIL [2] was 12%, the “NUCLEATED RED BLOOD CELLS” value [2] was 0.67 /100WBC and the “PLATELET COUNT” value [2] was 1052.67 x10E3/uL. For the same compound, the “ALANINE AMINOTRANSFERASE” value [2] was 54 u/L, the ALBUMIN [2] was 4.33 G/DL and the “ALKALINE PHOSPHATASE” value [2] was 480.33 u/L. For the same compound, the “ASPARTATE AMINOTRANSFERASE” value [2] was 86 u/L, the “BLOOD UREA NITROGEN” value [2] was 17 mg/dL and the “CARBON DIOXIDE” value [2] was 30 mmol/L. The CHLORIDE [2] was 104 MEQ/L, the CHOLESTEROL [2] was 77.67 mg/dL and the “CREATINE PHOSPHOKINASE” value [2] was 137.33 u/L. For the same compound, the CREATININE [2] was 0.47 mg/dL, the GLUCOSE [2] was 160.67 mg/dL and the “LACTATE DEHYDROGENASE” value [2] was 98.33 u/L. The LIPASE [2] was 11 u/L, the PHOSPHORUS [2] was 13.1 mg/dL and the POTASSIUM [2] was 5.91 MEQ/L. The SODIUM [2] was 148.57 MEQ/L, the “TOTAL BILIRUBIN” value [2] was 0.13 mg/dL and the “TOTAL PROTEIN” value [2] was 6 G/DL. For the same compound, the “URIC ACID” value [2] was 1.17 mg/dL, the “ABSOLUTE BASOPHIL” value [3] was 0 CELLS/uL and the “ABSOLUTE EOSINOPHIL” value [3] was 0 CELLS/uL. The “ABSOLUTE LYMPHOCYTE” value [3] was 9516.67 CELLS/uL, the “ABSOLUTE MONOCYTE” value [3] was 47 CELLS/uL and the “ABSOLUTE SEGMENTED NEUTROPHIL” value [3] was 1103 CELLS/uL. For the same compound, the BASOPHIL [3] was 0%, the EOSINOPHIL [3] was 0% and the “ERYTHROCYTE COUNT” value [3] was 5.74 x10E6/uL. For the same compound, the HEMATOCRIT [3] was 34.53%, the HEMOGLOBIN [3] was 13.23 G/DL and the “LEUKOCYTE COUNT” value [3] was 10.67 x10E3/uL. The LYMPHOCYTE [3] was 88.67%, the “MEAN CORPUSCULAR HEMOGLOBIN” value [3] was 23.07 pg and the “MEAN CORPUSCULAR HEMOGLOBIN CONCENTRATION” value [3] was 38.33 G/DL. For the same compound, the “MEAN CORPUSCULAR VOLUME” value [3] was 60.23 fL, the MONOCYTE [3] was 0.33% and the NEUTROPHIL [3] was 11%. The “NUCLEATED RED BLOOD CELLS” value [3] was 0 /100WBC, the “PLATELET COUNT” value [3] was 1161.33 x10E3/uL and the “ALANINE AMINOTRANSFERASE” value [3] was 47 u/L. For the same compound, the ALBUMIN [3] was 4.43 G/DL, the “ALKALINE PHOSPHATASE” value [3] was 491.67 u/L and the “ASPARTATE AMINOTRANSFERASE” value [3] was 84.33 u/L. For the same compound, the “BLOOD UREA NITROGEN” value [3] was 22 mg/dL, the “CARBON DIOXIDE” value [3] was 24.67 mmol/L and the CHLORIDE [3] was 105 MEQ/L. For the same compound, the CHOLESTEROL [3] was 64 mg/dL, the “CREATINE PHOSPHOKINASE” value [3] was 157 u/L and the CREATININE [3] was 0.73 mg/dL. The GLUCOSE [3] was 176.33 mg/dL, the “LACTATE DEHYDROGENASE” value [3] was 96.33 u/L and the LIPASE [3] was 8.67 u/L. For the same compound, the PHOSPHORUS [3] was 12.63 mg/dL, the POTASSIUM [3] was 6.59 MEQ/L and the SODIUM [3] was 146.77 MEQ/L. For the same compound, the “TOTAL BILIRUBIN” value [3] was 0.1 mg/dL, the “TOTAL PROTEIN” value [3] was 5.97 G/DL and the “URIC ACID” value [3] was 1.8 mg/dL.
